The numbers were not newly measured in patent US7476743B2, “Compounds, compositions, and methods” (Cytokinetics, Inc., priority 2002, dated 2009), which cites them from elsewhere.

The data set concerns A549 cells. The conditions noted are these: data provided by National Cancer Institute.
Broadly, the GI50 is the concentration that inhibits growth by half. Regarding `O=c1[nH]cc(F)c(=O)[nH]1` [5-fluorouracil], the 50% growth inhibitory concentration (GI50) was 1 µM.
Regarding `COc1cccc2c1C(=O)c1c(O)c3c(c(O)c1C2=O)C[C@@](O)(C(=O)CO)C[C@@H]3O[C@H]1C[C@H](N)[C@H](O)[C@H](C)O1` [doxorubicin], the GI50 is 0.063 µM.
In the case of `NC(=O)NO` [hydroxyurea], the GI50 was 500 µM.
For the compound `CC(=O)O[C@H]1C(=O)[C@@]2(C)[C@H]([C@H](OC(=O)c3ccccc3)[C@]3(O)C[C@H](OC(=O)[C@H](O)[C@@H](NC(=O)c4ccccc4)c4ccccc4)C(C)=C1C3(C)C)[C@]1(OC(C)=O)CO[C@@H]1C[C@@H]2O` [paclitaxel], the 50% growth inhibitory concentration (GI50) was 0.004 µM.
